# What was measured:
# Type in all cases: physicochemical
# [1] = Stepwise formation constants for Fe-ligand system by titration in 0.1M NaCl; conditions: for pFe^3+: pH 7.4, ligand 10 μM, metal 1 μM, HySS; for K111 / K122 / K133: stepwise constant, Fe-ligand system, Example 53
# Method: Stepwise formation constants for M^n+-ligand systems were determined by spectrophotometric titration when metal complexes have a strong absorbance in the visible region due to ligand to metal charge transfer.
# In a typical experiment, the sample solution was prepared according to the following procedure: compound Apo7041 (12.96 mg) was weighed into a 50 mL volumetric flask, and about 40 mL of 0.1 M NaCl was added. The mixture was sonicated for 10 min to give a clear colorless solution. The iron stock solution (atomic absorption standard, Aldrich, 565 μL, 10.00 μmol) was pipetted into the solution, followed by the addition of 1.000 N NaOH (170 μL). More of the 0.1 M NaCl was added to volume and the resulting solution was vortexed to mix. The molar ratio between the total iron and the total Apo7041 was 1/5.1. The mixture was vortexed at rt for 1 h. 20 mL of the sample solution was transferred into a 35 mL beaker by using a 10 mL digital pipet. The sample solution was circulated between the beaker and the flow cell using a sipper system. The sample solution was titrated against hydrochloric acid solutions at 22° C. until the pH reached 0.021. After each addition of acid, the solution was allowed to equilibrate until a constant pH reading was reached. The pH and the UV-Vis spectrum were recorded for each measurement. For each measurement enough acid was added so that there was a slight decrease in the absorbance of the spectrum. Altogether, 68 measurements were taken to finish the experiment.
# The resulting data set was then analyzed using pHAB. The formation constants for Fe-Apo7041 system were optimized using the model shown in the first column of the table.
# pM^n+ is defined as −log [M(H2O)m]^n+ at physiological conditions, i.e.: pH 7.4, a ligand concentration of 10 μM, and a metal concentration of 1 μM. To calculate pM^n+ for a MLn system, βn and pKa values are needed (βn are the formation constants for M^n++n L^−⇄MLn; pKa are the equilibrium constants for L^−+n H^+⇄LHn^(n-1)+). The pM^n+ is calculated using the HySS software (HYSS© 2000 Protonic Software).
# The log β values of the Fe-Apo7323 system were determined by spectrophotometric titration using an Agilent 8453 UV-visible spectroscopy system (see Example 29B). The sample solution was a mixture of Fe^3+ (2×10^−4 M) and Apo7323 (1×10^−3 M) in 0.1 N NaCl aqueous solvent. The titration data in a pH range of 3.408 to 0.655 were fitted with pHAB using the model shown in FIG. 1 to obtain Log β111, Log β122, and Log β133.
# The sample solution was a mixture of Fe^3+ (6×10^−3M) and Apo7323 (1.8×10^−2M) in 0.1 N NaCl aqueous solvent. The titration started at pH 1.72 and ended at pH 11.5 using 3 M NaOH as the titrant. The titration data in a pH range of 3 to 10 were fitted with Hyperquad2000 software using the model:
# [drawing 175] where 133 is the species (FeL3H3)^3+, 132 is the species is (FeL3H2)^2+, 131 is the species (FeL3H)^+, and 130 is the species FeL3.
# (§1) After obtaining three pKa values for Apo7323 (ligand), three pKa values for the Fe-Apo7323 complex, and the log β values for Fe-Apo7323 as shown in the following table, a speciation plot (FIG. 14) was constructed using the HySS software program. pFe was also calculated using the HySS software.
# [2] = Fe speciation plot (HySS); conditions: for % FeL2H2 at pH 7.4 / % FeL3 (species 130, neutral/uncharged ferric chelate) at pH 7.4 / % FeL3H2 (species 132) at pH 7.4 / % FeL3H3 (species 133) at pH 7.4 / % FeL3H (species 131) at pH 7.4: Fe:ligand 1:10, [Fe]=1×10^−6 M, [L]=1×10^−5 M
# Excerpt: Example 54 illustrates the speciation distribution of several amino fluorinated derivatives of 3-hydroxypyridin-4-(1H)-ones of the invention. The speciation plot (distribution of ferric chelate species) of two compounds of formula I (Apo7067 and Apo7323) at pH 7.4 is provided in the following table.
# as §1
# [3] = pKa determination by spectrophotometric titration; conditions: for pKa: 0.1 M NaCl solution, read-out: pKa (amine); for Logβ011 / Logβ012 / Logβ013: cumulative ligand protonation; for Logβ011 / Logβ012 / Logβ013 / pKa1(L) / pKa2(L) / pKa3(L): Example 53; for pKa1(L) / pKa2(L) / pKa3(L): ligand, spectrophotometric titration
# Method: The pKa values of ligands can be determined by spectrophotometric titration when both the conjugated acid and base absorb in the UV-visible region. In a typical experiment, the sample solution was prepared by the following method: Apo7041 stock solution (12.74 mg) was weighed into a 10 mL volumetric flask, and 0.1 M NaCl solution was added to volume. The mixture was sonicated and voltexed to give a clear colorless solution. The concentration of Apo7041 of this stock solution is 5.1×10^−3 M.
# Apo7041 sample solution: 727 μL of the above stock solution was transferred into a 50 mL volumetric flask by using a 1000 μL digital pipet, and 0.1 M NaCl was added to volume. The resulting solution was vortexed to mix to give a sample solution. The concentration of Apo7041 of this sample solution is 7.4×10^−5 M. 20 mL of the sample solution was transferred into a 35 mL beaker by using a 10 mL digital pipet. The sample solution was circulated between the beaker and the flow cell using a sipper system.
# The sample solution was titrated against standard hydrochloric acid solutions at 22° C. to reach pH 1.11. After each addition of acid the solution was allowed to equilibrate until a constant pH reading was reached. The pH and the UV-Vis spectrum were recorded for each measurement. The solution was titrated until there was no obvious change in the spectra after several subsequent additions of acid. Thus, 30 measurements were recorded.
# The resulting data set was then analyzed using pHAB (Peter Gans, University of Leeds). The pKa values were obtained using the model: LH+H^+⇄LH2^+, and LH2^++H^+⇄LH3^2+ (pKa3). Thus, Apo7041 has pKa2=3.51, and pKa3=1.23 as determined spectrophotometrically.
# The pKa values of Apo7323 were determined by spectrophotometric titration using an Agilent 8453 UV-visible spectroscopy system (see Example 26).
# [4] = 0.1 M NaCl, spectrophotometric titration
# [5] = 0.1 M NaCl, spectrophotometric titration, fitted
# [6] = spectrophotometric, 0.1 M NaCl, 22° C.
SMILES,"Log β111 (Fe3+) [1, 4]","Log β122 (Fe3+) [1, 4]","Log β133 (Fe3+) [1, 4]",pKa ([3]; amino group of the ligand),Log β130 (Fe3+) ([1]; Example 53: Log β131 − pKa1(C)),Log β131 (Fe3+) ([1]; Example 53: Log β132 − pKa2(C)),Log β132 (Fe3+) ([1]; Example 53: Log β133 − pKa3(C)),K111 [1],K122 [1],K133 [1],% FeL2H2 at pH 7.4 [2],% FeL3H2 (species 132) at pH 7.4 [2],% FeL3H3 (species 133) at pH 7.4 [2],% FeL3H (species 131) at pH 7.4 [2],Logβ011 [3],Logβ012 [3],Logβ013 [3],pKa1(L) [3],pKa2(L) [3],pKa3(L) [3],further results
"CN(C)C(c1c(O)c(=O)ccn1C)C(F)(F)F (centres unmarked) [Apo7041, 2-[1-(dimethylamino)-2,2,2-trifluoroethyl]-3-hydroxy-1-methylpyridin-4(1H)-one]",18.1,35.0,50.5,3.5,,,,,,,,,,,,,,,,,"Log β130 (Fe3+) ([1]; 0.1 M NaCl, fitted): 38.8; Log β131 (Fe3+) [1, 5]: 44.5; Log β132 (Fe3+) [1, 5]: 48.3; pFe^3+ [1]: pFe^3+ = 23.4; pH from which the FeL3 chelate is stable ([2]; speciation plot FIG. 5): ≥ 5; pKa (amine) ([3]; amino group of the ligand): 3.51; pKa2 [3, 6]: 3.51; pKa3 [3, 6]: 1.23"
"CNC(c1cn(C)c(C)c(O)c1=O)C(F)(F)F (centres unmarked) [Apo7056, 3-Hydroxy-1,2-dimethyl-5-[2,2,2-trifluoro-1-(methylamino)ethyl]pyridin-4(1H)-one]",18.7,35.9,51.5,,36.5,42.3,47.3,18.7,17.2,15.6,0.0%,0.0%,0.0%,2.40%,9.8,14.7,15.1,9.8,4.9,0.4,"% FeL3 (species 130, neutral/uncharged ferric chelate) at pH 7.4 [2]: 97.5%"
"CN(C)Cc1c(O)c(=O)ccn1CC(F)(F)F [Apo7067, 2-[(dimethylamino)methyl]-3-hydroxy-1-(2,2,2-trifluoroethyl)pyridin-4(1H)-one]",20.0,38.7,55.7,6.1,34.5,42.6,49.6,20.0,18.7,17.0,,24.6%,1.2%,61.8%,9.6,15.7,16.5,9.6,6.1,0.8,
"O=c1ccn(CC(F)(F)F)c(CN2CCOCC2)c1O [Apo7323, 3-hydroxy-2-(morpholinomethyl)-1-(2,2,2-trifluoroethyl)pyridin-4(1H)-one]",18.4,34.9,50.1,4.2,35.7,41.6,46.2,18.4,16.5,15.1,0.0%,0.0%,0.0%,3.1%,9.2,13.4,14.2,9.2,4.2,0.8,
"Cc1c(O)c(=O)c(C(N2CCOCC2)C(F)(F)F)cn1C (centres unmarked) [Apo7435, 3-hydroxy-1,2-dimethyl-5-(2,2,2-trifluoro-1-morpholinoethyl)pyridin-4(1H)-one]",15.9,30.4,44.8,2.5,35.6,39.6,42.7,15.9,14.5,14.4,0.0%,0.0%,0.0%,0.00%,9.8,12.3,12.3,9.8,2.5,0.0,"% FeL3 (species 130, neutral/uncharged ferric chelate) at pH 7.4 [2]: 100%"
"Cc1c(O)c(=O)ccn1C [Deferiprone, 3-hydroxy-1,2-dimethylpyridin-4(1H)-one, reference compound]",,,,,,,,,,,,,,,,,,,,,"Log β130 (Fe3+) ([1]; 0.1 M NaCl, fitted, listed as deferiprone): 37.24; Log β130 (Fe3+) ([1]; 0.1 M NaCl, fitted, listed as drawing 103): Logβ130 = 37.24; Logβ110 (Fe3+) ([1]; 0.1M aqueous NaCl): Logβ110 = 14.85; Logβ120 (Fe3+) ([1]; 0.1M aqueous NaCl): Logβ120 = 27.25; pFe^3+ [1]: pFe^3+ = 20.2; % FeL3 (species 130, neutral/uncharged ferric chelate) at pH 7.4 [2]: ~100%"

# — patent publication US9938240B2, “Fluorinated derivatives of 3-hydroxypyridin-4-ones” (Apotex Technologies Inc., priority 2009, dated 2018)
